The target of test [1] is human FLAP (Homo sapiens (Human), UniProt P20292). Nature of the test: FLAP binding assay (HTRF format). The method, boiled down: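 Binding of compounds to FLAP read out as HTRF ratio. Values are the mean of two assay plates, each sample run in duplicate per plate.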
(In general: Time-resolved FRET reads energy transfer from a long-lived donor to a nearby acceptor.)

In test [2] the test system is leukotriene pathway in human whole blood (LTB4 levels). The experiment in a line: Human whole blood assay (A23187-stimulated LTB4). The conditions noted are these: Homo sapiens, read-out: LTB4 IC50 1:1. The class given is cell-based. An outline of the steps:
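Single-replicate data from at least one healthy donor: compound pre-incubated 15 min at 37° Celsius in 1:1 RPMI-diluted heparinised blood, followed by 30 min calcium ionophore A23187 (7 μg/mL) challenge at 37° Celsius. LTB4 in plasma quantified by kit; IC50 via 4-parameter equation.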

Where [3] appears, read: human FLAP wild type, HTRF format, average of two plates, duplicates.
The mark [4] stands for this setting: human whole blood diluted 1:1 in RPMI, A23187-stimulated LTB4.

pIC50, pKi: −log10 of the molar value. Structures can show the parent of a compound that is named as a salt. Where two headings read alike, the source gives them in different places.

Chain of human FLAP (P20292 whole entry): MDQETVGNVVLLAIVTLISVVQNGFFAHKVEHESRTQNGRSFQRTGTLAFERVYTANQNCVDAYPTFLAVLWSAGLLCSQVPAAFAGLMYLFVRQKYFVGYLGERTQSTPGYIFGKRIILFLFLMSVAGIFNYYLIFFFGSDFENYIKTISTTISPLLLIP

By pKi is commonly meant the negative decadic logarithm of the Ki, by convention in mol/L. One may read the pIC50 as −log10 of the IC50, conventionally taken in molar units. In test [1] (setting [3]), `CS(=O)(=O)c1cc(C(F)(F)F)ccc1-c1ccc(-c2cnc(N)nc2)c(F)c1` [Example 323, 5-[3-Fluoro-2′-(methylsulfonyl)-4′-(trifluoromethyl)biphenyl-4-yl]pyrimidin-2-amine] gave a negative logarithm of the Ki (pKi) of 6.11. Moreover, the pIC50 in test [2] (setting [4]) was 5.18.

With `Nc1ncc(-c2ccc(-c3ccc(C(F)(F)F)cc3S(=O)(=O)N3CCNC(=O)C3)cc2F)cn1` [Example 324, 4-{[4′-(2-Aminopyrimidin-5-yl)-3′-fluoro-4-(trifluoromethyl)biphenyl-2-yl]sulfonyl}piperazin-2-one], in test [1] (setting [3]), the pKi was 7.72. Further, the negative logarithm of the IC50 (pIC50) in test [2] (setting [4]) is 7.00.

In test [1] (setting [3]), `CNS(=O)(=O)c1cc(C(F)(F)F)ccc1-c1ccc(-c2cnc(N)nc2)c(F)c1` [Example 325, 4′-(2-Aminopyrimidin-5-yl)-3′-fluoro-N-methyl-4-(trifluoromethyl)biphenyl-2-sulfonamide] gave a negative logarithm of the Ki (pKi) of 8.40. Moreover, in test [2] (setting [4]), the pIC50 was 7.04.

In test [1] (setting [3]), `Nc1ncc(-c2ccc(-c3ccc(C(F)(F)F)cc3S(=O)(=O)NCCO)cc2F)cn1` [Example 326, 4′-(2-Aminopyrimidin-5-yl)-3′-fluoro-N-(2-hydroxyethyl)-4-(trifluoromethyl)biphenyl-2-sulfonamide] showed a negative-log Ki (pKi) of 8.52. Further, the pIC50 in test [2] (setting [4]) is 7.54.

In test [1] (setting [3]), `CCNS(=O)(=O)c1cc(C(F)(F)F)ccc1-c1ccc(-c2cnc(N)nc2)c(F)c1` [Example 327, 4′-(2-Aminopyrimidin-5-yl)-N-ethyl-3′-fluoro-4-(trifluoromethyl)biphenyl-2-sulfonamide] had a negative-log Ki (pKi) of 8.70. The negative-log IC50 (pIC50) in test [2] (setting [4]) was 7.41.

`CN1CCN(S(=O)(=O)c2cc(C(F)(F)F)ccc2-c2ccc(-c3cnc(N)nc3)c(F)c2)CC1` [Example 328, 5-{3-Fluoro-2′-[(4-methylpiperazin-1-yl)sulfonyl]-4′-(trifluoromethyl)biphenyl-4-yl}pyrimidin-2-amine] gave a pKi in test [1] (setting [3]) of 7.82. Further, the pIC50 in test [2] (setting [4]) was 6.92.

Take `Nc1cnc(Sc2ccccc2-c2ccc(-c3cnc(N)nc3)c(F)c2)nc1` [Example 329, 5-{2′-[(5-Aminopyrimidin-2-yl)sulfanyl]-3-fluorobiphenyl-4-yl}pyrimidin-2-amine formate salt]: the negative logarithm of the Ki (pKi) in test [1] (setting [3]) is 7.92. Moreover, in test [2] (setting [4]), the pIC50 was 7.18.

As for `Nc1ccnc(Sc2ccccc2-c2ccc(-c3cnc(N)nc3)c(F)c2)n1` [Example 330, 5-{2′-[(4-Aminopyrimidin-2-yl)sulfanyl]-3-fluorobiphenyl-4-yl}pyrimidin-2-amine formate salt], in test [1] (read-out: FLAP Binding wild type HTRF Ki), the negative-log Ki (pKi) is 7.92. Besides, the negative-log IC50 (pIC50) in test [2] (setting [4]) was 7.06.

As for `Nc1ncc(-c2ccc(-c3ccccc3Sc3ncncc3N)cc2F)cn1` [Example 331, 5-{2′-[(5-Aminopyrimidin-4-yl)sulfanyl]-3-fluorobiphenyl-4-yl}pyrimidin-2-amine formate salt], the negative logarithm of the Ki (pKi) in test [1] (setting [3]) is 7.85. The pIC50 in test [2] (setting [4]) is 7.21.

`Nc1ncc(-c2ccc(-c3ccccc3Sc3ncccn3)cc2F)cn1` [Example 332, 5-[3-Fluoro-2′-(pyrimidin-2-ylsulfanyl)biphenyl-4-yl]pyrimidin-2-amine hydrochloride]: the negative-log Ki (pKi) in test [1] (setting [3]) is 7.19. Besides, the pIC50 in test [2] (setting [4]) is 6.90.

`Nc1ncc(-c2ccc(-c3ccccc3Sc3cnccn3)cc2F)cn1` [Example 333, 5-[3-Fluoro-2′-(pyrazin-2-ylsulfanyl)biphenyl-4-yl]pyrimidin-2-amine hydrochloride]: the negative-log Ki (pKi) in test [1] (setting [3]) was 7.35. In addition, in test [2] (setting [4]), the pIC50 is 6.17.

For `Nc1cc(Sc2ccccc2-c2ccc(-c3cnc(N)nc3)c(F)c2)ncn1` [Example 334, 5-{2′-[(6-Aminopyrimidin-4-yl)sulfanyl]-3-fluorobiphenyl-4-yl}pyrimidin-2-amine formate salt], the negative logarithm of the Ki (pKi) in test [1] (setting [3]) is 7.92. For the same compound, the pIC50 in test [2] (setting [4]) is 7.17.

The compound `Nc1ncc(-c2ccc(-c3ccccc3Sc3ccnc(N)n3)cc2F)cn1` [Example 335, 4-{[4′-(2-Aminopyrimidin-5-yl)-3′-fluorobiphenyl-2-yl]sulfanyl}pyrimidin-2-amine formate salt] showed a pKi in test [1] (setting [3]) of 8.70. Besides, the negative logarithm of the IC50 (pIC50) in test [2] (setting [4]) is 7.43.

`Nc1cncc(Sc2ccccc2-c2ccc(-c3cnc(N)nc3)c(F)c2)n1` [Example 336, 5-{2′-[(6-Aminopyrazin-2-yl)sulfanyl]-3-fluorobiphenyl-4-yl}pyrimidin-2-amine formate salt] had a pKi in test [1] (setting [3]) of 8.40. The pIC50 in test [2] (setting [4]) was 7.19.

In turn, `C[Si](C)(C)CCOCSc1ccccc1-c1ccc(-c2cnc(N)nc2)c(F)c1` [Example 340, 5-[3-Fluoro-2′-({[2-(trimethylsilyl)ethoxy]methyl}sulfanyl)biphenyl-4-yl]pyrimidin-2-amine] showed a pKi in test [1] (setting [3]) of 6.98. The negative logarithm of the IC50 (pIC50) in test [2] is 6.49.

As for `CC(C)(C)NS(=O)(=O)c1ccccc1-c1ccc(-c2ccc(N)nc2)c(F)c1` [Example 342, 4′-(6-Aminopyridin-3-yl)-N-(tert-butyl)-3′-fluoro-[1,1′-biphenyl]-2-sulfonamide], the pKi in test [1] (setting [3]) was 8.70. Moreover, in test [2] (setting [4]), the negative-log IC50 (pIC50) was 6.93.

As for `CCN(CC)S(=O)(=O)c1ccccc1-c1ccc(-c2ccc(N)nc2)c(F)c1` [Example 343, 4′-(6-Aminopyridin-3-yl)-N,N-diethyl-3′-fluoro-[1,1′-biphenyl]-2-sulfonamide], the negative-log Ki (pKi) in test [1] (setting [3]) is 8.40. In addition, in test [2] (setting [4]), the pIC50 is 7.24.

As for `Nc1ccc(-c2ccc(-c3ccccc3S(=O)(=O)N3CCCC3)cc2F)cn1` [Example 344, 5-(3-Fluoro-2′-(pyrrolidin-1-ylsulfonyl)-[1,1′-biphenyl]-4-yl)pyridin-2-amine], the negative logarithm of the Ki (pKi) in test [1] (setting [3]) was 7.09. The pIC50 in test [2] (setting [4]) was below 5.00.

Regarding `Nc1ccc(-c2ccc(-c3ccccc3S(=O)(=O)N3CCCCC3)cc2F)cn1` [Example 345, 5-(3-Fluoro-2′-(piperidin-1-ylsulfonyl)-[1,1′-biphenyl]-4-yl)pyridin-2-amine], the negative-log Ki (pKi) in test [1] (setting [3]) is 7.55. The pIC50 in test [2] (setting [4]) was 6.59.

In turn, `Nc1ccc(-c2ccc(-c3ccccc3S(=O)(=O)NC3CCCCC3)cc2F)cn1` [Example 346, 4′-(6-Aminopyridin-3-yl)-N-cyclohexyl-3′-fluoro-[1,1′-biphenyl]-2-sulfonamide] showed a pKi in test [1] (setting [3]) of 8.30. For the same compound, in test [2] (setting [4]), the pIC50 is 7.02.

Consider `CC(C)CNS(=O)(=O)c1ccccc1-c1ccc(-c2ccc(N)nc2)c(F)c1` [Example 348, 4′-(6-Aminopyridin-3-yl)-3′-fluoro-N-iso-butyl-[1,1′-biphenyl]-2-sulfonamide], for which the pKi in test [1] (setting [3]) was 8.30. The pIC50 in test [2] (setting [4]) is 6.97.

Turning to `CCC(C)(C)NS(=O)(=O)c1ccccc1-c1ccc(-c2ccc(N)nc2)c(F)c1` [Example 349, 4′-(6-Aminopyridin-3-yl)-3′-fluoro-N-(tert-pentyl)-[1,1′-biphenyl]-2-sulfonamide], the pKi in test [1] (setting [3]) is 9.00. Also, the negative logarithm of the IC50 (pIC50) in test [2] (setting [4]) was 7.89.

In test [1] (setting [3]), `CC(C)(NS(=O)(=O)c1ccccc1-c1ccc(-c2ccc(N)nc2)c(F)c1)C(F)(F)F` [Example 350, 4′-(6-Aminopyridin-3-yl)-3′-fluoro-N-(1,1,1-trifluoro-2-methylpropan-2-yl)-[1,1′-biphenyl]-2-sulfonamide] showed a pKi of 8.70. For the same compound, in test [2] (setting [4]), the negative logarithm of the IC50 (pIC50) is 7.59.

`Nc1ccc(-c2ccc(-c3ccccc3S(=O)(=O)N[C@@H](c3ccccc3)C(F)(F)F)cc2F)cn1` [Example 351, (S)-4′-(6-Aminopyridin-3-yl)-3′-fluoro-N-(2,2,2-trifluoro-1-phenylethyl)-[1,1′-biphenyl]-2-sulfonamide] showed a pKi in test [1] (setting [3]) of 7.77. Also, the negative logarithm of the IC50 (pIC50) in test [2] (setting [4]) is 6.53.

Compound `CC1(NS(=O)(=O)c2ccccc2-c2ccc(-c3ccc(N)nc3)c(F)c2)CCC1` [Example 353, 4′-(6-Aminopyridin-3-yl)-3′-fluoro-N-(1-methylcyclobutyl)-[, 1′-biphenyl]-2-sulfonamide] gave a negative-log Ki (pKi) in test [1] (setting [3]) of 9.00. Also, the pIC50 in test [2] (setting [4]) was 7.70.

Take `Nc1ccc(-c2ccc(-c3ccccc3S(=O)(=O)N3CCS(=O)(=O)CC3)cc2F)cn1` [Example 354, 4-((4′-(6-Aminopyridin-3-yl)-3′-fluoro-[1,1′-biphenyl]-2-yl)sulfonyl)thiomorpholine 1,1-dioxide]: in test [1] (setting [3]), the pKi was 7.43. Further, in test [2] (setting [4]), the pIC50 is 7.03.

With `C[C@H](NS(=O)(=O)c1ccccc1-c1ccc(-c2ccc(N)nc2)c(F)c1)C(F)(F)F` [Example 355, (S)-4′-(6-Aminopyridin-3-yl)-3′-fluoro-N-(1,1,1-trifluoropropan-2-yl)-[1,1′-biphenyl]-2-sulfonamide], in test [1] (setting [3]), the negative logarithm of the Ki (pKi) is 8.30. For the same compound, the pIC50 in test [2] (setting [4]) was 7.54.

`Nc1ccc(-c2ccc(-c3ccccc3S(=O)(=O)N3C[C@@H]4C[C@H]3CO4)cc2F)cn1` [Example 356, 5-(2′-((1S,4S)-2-Oxa-5-azabicyclo[2.2.1]heptan-5-ylsulfonyl)-3-fluoro-[1,1′-biphenyl]-4-yl)pyridin-2-amine]: in test [1] (setting [3]), the negative logarithm of the Ki (pKi) is 7.49. Also, in test [2] (setting [4]), the negative logarithm of the IC50 (pIC50) is 6.97.

As for `Nc1ccc(-c2ccc(-c3ccccc3S(=O)(=O)NCC3(O)CNC3)cc2F)cn1` [Example 358, 4′-(6-Aminopyridin-3-yl)-3′-fluoro-N-((3-hydroxyazetidin-3-yl)methyl)-[1,1′-biphenyl]-2-sulfonamide], in test [1] (setting [3]), the negative-log Ki (pKi) was 7.26. The pIC50 in test [2] (setting [4]) was below 5.00.

On to `Nc1ccc(-c2ccc(-c3ccccc3S(=O)(=O)N3CCC(CCO)CC3)cc2F)cn1` [Example 359, 2-(1-((4′-(6-Aminopyridin-3-yl)-3′-fluoro-[1,1′-biphenyl]-2-yl)sulfonyl)piperidin-4-yl)ethanol], for which the negative-log Ki (pKi) in test [1] (setting [3]) was 8.40. Besides, the pIC50 in test [2] (setting [4]) was 7.27.

With `Nc1ccc(-c2ccc(-c3ccccc3S(=O)(=O)N3CCC(O)CC3)cc2F)cn1` [Example 360, 1-((4′-(6-Aminopyridin-3-yl)-3′-fluoro-[1,1′-biphenyl]-2-yl)sulfonyl)piperidin-4-ol], the pKi in test [1] (setting [3]) was 7.66. For the same compound, the negative logarithm of the IC50 (pIC50) in test [2] (setting [4]) is 7.17.

These data come from patent publication US9079866B2, “Flap modulators” (JANSSEN PHARMACEUTICA NV, priority 2013, dated 2015).
